The term bioavailability denotes dose-corrected exposure relative to a reference, in per cent.

The text below walks through data of paper PMC5808105, “Sublingual Administration of Sildenafil Oro-dispersible Film: New Profiles of Drug Tolerability and Pharmacokinetics for PDE5 Inhibitors” (Frontiers in Pharmacology, 2018).

On the set-up of data set [1]: method as in Zayed et al., 2012; Sun et al., 2014. As to conditions: result in words; ref Zayed et al., 2012; Sun et al., 2014; cited from earlier work.
The conditions of data set [2]: cited from earlier work.
Data set [3] is described as follows: Trans-mucosal permeation test (vertical diffusion system). The data set is classed as in vitro ADME. The conditions noted are these: HBSS, donor-receiver chambers, 0-40 min; equivalent to 50 mg Sild; result in words. Here is the method: Trans-mucosal permeation profile of Sild was evaluated in vitro by using a specific device according to [Delvadia et al. (2012)] appropriately modified. Briefly, the device consisted in a vertical diffusion system featured by donor–receiver chambers separated by a disposable cellulose–acetate membrane (pore 0.45 μm). The donor cell contained 1.5 ml of HBSS, whereas the receiver chamber was part of a closed recirculation circuit of 30 ml including the volumes of tubing and reservoir. Sampling was performed from receiver chamber reservoir at the time intervals of 0, 5, 10, 20, 30, and 40 min and replaced by an equivalent volume of fresh HBSS. The samples were analyzed by HPLC-UV for drug content ([Fejős et al., 2014]). Data were normalized on the highest permeated Sild concentration observed for pure Sild citrate. Tests were performed in triplicate and results were reported as mean value ± standard deviation.

For the compound `CCCc1nn(C)c2c(=O)[nH]c(-c3cc(S(=O)(=O)N4CCN(C)CC4)ccc3OCC)nc12` [Sild, Sildenafil], the water solubility result in data set [1] is recorded as “low water solubility”. Besides, in data set [2] (after oral administration, ref Gupta et al., 2005), the “time to peak plasma concentration” value is 0.5 to 2 h. The oral bioavailability in data set [2] (ref Gupta et al., 2005) was 38–41%.
On to `CCCc1nn(C)c2c(=O)[nH]c(-c3cc(S(=O)(=O)N4CCN(C)CC4)ccc3OCC)nc12.O=C(O)CC(O)(CC(=O)O)C(=O)O` [Sild citrate], for which, in data set [3], the “permeation of Sild through cellulose acetate membrane” value is “free and fast diffusion between the two chambers”.
Take `CCCc1nc(C)c2c(=O)[nH]c(-c3cc(S(=O)(=O)N4CCN(CC)CC4)ccc3OCC)nn12` [Vardenafil]: the bioavailability in data set [2] (ref Center for Drug Evaluation and Research, 2003) is given as roughly 15%.
